# Measurements as given in US20250074919A1, “Heteroaryl compounds as inhibitors of irak4, compositions and applications thereof” (Accro Bioscience (HK) Limited, priority 2021, published 2025).
# Counter-ions that a name gives are not always drawn.
# Target: IRAK4 (Homo sapiens (Human), UniProt Q9NWZ3)
# Test: Screening the compounds against IRAK4 with ATP (Caliper, FAM-labeled peptide)
# Type: biochemical
# Details: IRAK4 kinase inhibition relative to CA4948
# Method: Prepare Ix kinase base buffer and stop buffer for testing kinases: (1) base buffer: 50 mM HEPES (pH 7.5), 0.0015% Brij-35; (2) stop buffer: 100 mM HEPES (pH 7.5), 0.015% Brij-35, 0.2% Coating Reagent #3, 50 mM EDTA. Then prepare compounds for testing: Dilute the compound to 50× of the final desired highest inhibitor concentration in reaction by 100% DMSO. Transfer 100 μL of this compound dilution to a well in a 96-well plate (source plate).
# Serially dilute the compounds by 3-fold for a total of 10 points. Transfer 10 μL of the compound from the source plate to a new 96-well plate (intermediate plate) and add 90 μL of Ix kinase buffer. Shake the mixture on the intermediate plate for 10 min. Transfer 5 μL of each well from the 96-well intermediate plate to a 384-well plate in duplicates. Add 10 μL of 2.5× enzyme solution to each well of the 384-well assay plate and incubate at room temperature for 10 min. Add 10 μL, of 2.5×FAM-labeled peptide and ATP solution and incubate at 28° C. for a period of time. Finally stop the reaction by adding 30 μL of stop buffer and collect data on Caliper to obtain the IC50.
# Sequence of IRAK4 (Q9NWZ3 whole entry): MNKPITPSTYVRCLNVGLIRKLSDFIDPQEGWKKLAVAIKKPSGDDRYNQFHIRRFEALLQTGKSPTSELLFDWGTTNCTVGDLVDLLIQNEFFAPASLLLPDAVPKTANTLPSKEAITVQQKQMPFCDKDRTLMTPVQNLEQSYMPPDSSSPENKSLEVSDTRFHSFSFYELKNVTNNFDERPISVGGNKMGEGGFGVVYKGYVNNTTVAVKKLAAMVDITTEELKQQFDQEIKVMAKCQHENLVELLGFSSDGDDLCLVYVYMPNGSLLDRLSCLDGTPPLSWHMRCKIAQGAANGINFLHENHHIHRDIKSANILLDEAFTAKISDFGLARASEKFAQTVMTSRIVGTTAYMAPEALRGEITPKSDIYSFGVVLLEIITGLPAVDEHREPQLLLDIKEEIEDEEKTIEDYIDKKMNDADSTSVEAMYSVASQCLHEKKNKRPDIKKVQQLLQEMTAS
row,SMILES,"activity, times better than that of the positive control compound CA4948"
1,"Cn1cc(-c2cccc(NC(=O)c3cc4c(nc3OC3CC(C)(O)C3)OC(C)(C)C4)n2)cn1 (stereo not drawn) [Compound B35, 6-(3-Hydroxy-3-methylcyclobutoxy)-2,2-dimethyl-N-(6-(1-methyl-1H-pyrazol-4-yl)pyridin-2-yl)-2,3-dihydrofuro[2,3-b]pyridine-5-carboxamide]",more than 10 times
2,"Cn1cc(-c2cccc(NC(=O)c3cc4c(nc3O[C@@H]3CCOC3)OC(C)(C)C4)n2)cn1 [Compound B33, (R)-2,2-Dimethyl-N-(6-(1-methyl-1H-pyrazol-4-yl)pyridin-2-yl)-6-((tetrahydrofuran-3-yl)oxy)-2,3-dihydrofuro[2,3-b]pyridine-5-carboxamide]",more than 10 times
3,"Cl.Cn1cc(-c2cccc(NC(=O)c3cc4oc(N5CCOCC5)nc4nc3N3CCN(CCO)CC3)n2)cn1 [Compound A36, 5-(4-(2-Hydroxyethyl)piperazin-1-yl)-N-(6-(1-methyl-1H-pyrazol-4-yl)pyridin-2-yl)-2-morpholinooxazolo[4,5-b]pyridine-6-carboxamide Hydrochloride]",more than 5 times

# Same assay, conditions: read-out: IC50 (nM) (10 μM ATP)
row,SMILES,IC50 [nM]
1,"COC1CCN(c2nc3nc(N4CCNCC4)oc3cc2C(=O)Nc2cccc(-c3cnn(C)c3)n2)CC1 [Compound A51, 5-(4-Methoxypiperidin-1-yl)-N-(6-(1-methyl-1H-pyrazol-4-yl)pyridin-2-yl)-2-(piperazin-1-yl)oxazolo[4,5-b]pyridine-6-carboxamide Hydrochloride]",7
2,"CC1(C)Cc2cc(C(=O)Nc3cccn(C4CC4)c3=O)c(N3CCC(O)CC3)nc2O1 [Compound B10, N-(1-Cyclopropyl-2-oxo-1,2-dihydropyridin-3-yl)-6-(4-hydroxypiperidin-1-yl)-2,2-dimethyl-2,3-dihydrofuro[2,3-b]pyridine-5-carboxamide]",479

# Same assay, conditions: read-out: IC50 (nM) (10 μM ATP); IRAK4 kinase, 10 μM ATP
row,SMILES,IC50 [nM]
1,"Cn1cc(-c2cccc(NC(=O)c3cc4c(nc3N3CCN(C5CC5)CC3)OC(C)(C)C4)n2)cn1 [Compound B4, 6-(4-Cyclopropylpiperazin-1-yl)-2,2-dimethyl-N-(6-(1-methyl-1H-pyrazol-4-yl)pyridin-2-yl)-2,3-dihydrofuro[2,3-b]pyridine-5-carboxamide]",7.5
2,"Cn1cc(-c2cccc(NC(=O)c3cc4c(nc3OC3CC(C)(O)C3)OC(C)(C)C4)n2)cn1 (stereo not drawn) [Compound B35, 6-(3-Hydroxy-3-methylcyclobutoxy)-2,2-dimethyl-N-(6-(1-methyl-1H-pyrazol-4-yl)pyridin-2-yl)-2,3-dihydrofuro[2,3-b]pyridine-5-carboxamide]",6.8
3,"COc1cccc(NC(=O)c2cc3oc(N4CCOCC4)nc3nc2N2CCC(OC)CC2)n1 [Compound A46, 5-(4-Methoxypiperidin-1-yl)-N-(6-methoxypyridin-2-yl)-2-morpholinooxazolo[4,5-b]pyridine-6-carboxamide]",179
4,"Cn1cc(-c2cccc(NC(=O)c3cc4oc(N5CCOCC5)nc4nc3N3CCN4CCC[C@@H]4C3)n2)cn1 [Compound A21, (R)-5-(Hexahydropyrrolo[1,2-a]pyrazin-2(1H)-yl)-N-(6-(1-methyl-1H-pyrazol-4-yl)pyridin-2-yl)-2-morpholinooxazolo[4,5-b]pyridine-6-carboxamide]",26
5,"N#Cc1cccc(NC(=O)c2cc3oc(N4CCOCC4)nc3nc2N2CCC(O)CC2)n1 [Compound A42, N-(6-Cyanopyridin-2-yl)-5-(4-hydroxypiperidin-1-yl)-2-morpholinooxazolo[4,5-b]pyridine-6-carboxamide]",87
6,"CN1CCN(c2nc3nc(N4CCOCC4)oc3cc2C(=O)Nc2cccc(-c3cnn(C)c3)n2)CC1CO (stereo not drawn) [Compound A37, 5-(3-(Hydroxymethyl)-4-methylpiperazin-1-yl)-N-(6-(1-methyl-1H-pyrazol-4-yl)pyridin-2-yl)-2-morpholinooxazolo[4,5-b]pyridine-6-carboxamide Hydrochloride]",462
7,"CC1CN(c2nc3nc(N4CCOCC4)oc3cc2C(=O)Nc2cccc(-c3cnn(C)c3)n2)CCN1C (stereo not drawn) [Compound A30, 5-(3,4-Dimethylpiperazin-1-yl)-N-(6-(1-methyl-1H-pyrazol-4-yl)pyridin-2-yl)-2-morpholinooxazolo[4,5-b]pyridine-6-carboxamide Hydrochloride]",125
8,"CN(C)C1CCN(c2nc3nc(N4CCOCC4)oc3cc2C(=O)Nc2cccc(-c3cnn(C)c3)n2)CC1 [Compound A23, 5-(4-(Dimethylamino)piperidin-1-yl)-N-(6-(1-methyl-1H-pyrazol-4-yl)pyridin-2-yl)-2-morpholinooxazolo[4,5-b]pyridine-6-carboxamide]",425
9,"Cn1cc(-c2cccc(NC(=O)c3cc4oc(N5CCOCC5)nc4nc3N3CC4(CCOC4)C3)n2)cn1 [Compound A18, N-(6-(1-Methyl-1H-pyrazol-4-yl)pyridin-2-yl)-2-morpholino-5-(6-oxa-2-azaspiro[3.4]octan-2-yl)oxazolo[4,5-b]pyridine-6-carboxamide]",221
10,"Cn1cc(-c2cccc(NC(=O)c3cc4oc(N5CCOCC5)nc4nc3N3CCC(F)(F)C3)n2)cn1 [Compound A12, 5-(3,3-Difluoropyrrolidin-1-yl)-N-(6-(1-methyl-1H-pyrazol-4-yl)pyridin-2-yl)-2-morpholinooxazolo[4,5-b]pyridine-6-carboxamide]",33
11,"Cn1cc(-c2cccc(NC(=O)c3cc4c(nc3O[C@@H]3CCOC3)OC(C)(C)C4)n2)cn1 [Compound B33, (R)-2,2-Dimethyl-N-(6-(1-methyl-1H-pyrazol-4-yl)pyridin-2-yl)-6-((tetrahydrofuran-3-yl)oxy)-2,3-dihydrofuro[2,3-b]pyridine-5-carboxamide]",8.9
12,"Cn1cc(-c2cccc(NC(=O)c3cc4c(nc3O[C@H]3CCOC3)OC(C)(C)C4)n2)cn1 [Compound B17, (S)-2,2-Dimethyl-N-(6-(1-methyl-1H-pyrazol-4-yl)pyridin-2-yl)-6-((tetrahydrofuran-3-yl)oxy)-2,3-dihydrofuro[2,3-b]pyridine-5-carboxamide]",6.5
13,"Cn1cc(-c2cccc(NC(=O)c3cc4oc(N5CCOCC5)nc4nc3N3CC(O)(C4CC4)C3)n2)cn1 [Compound A10, 5-(3-Cyclopropyl-3-hydroxyazetidin-1-yl)-N-(6-(1-methyl-1H-pyrazol-4-yl)pyridin-2-yl)-2-morpholinooxazolo[4,5-b]pyridine-6-carboxamide]",122
14,"Cn1cc(-c2cccc(NC(=O)c3cc4c(nc3OC3CCCC3)OC(C)(C)C4)n2)cn1 [Compound B15, 6-(Cyclopentyloxy)-2,2-dimethyl-N-(6-(1-methyl-1H-pyrazol-4-yl)pyridin-2-yl)-2,3-dihydrofuro[2,3-b]pyridine-5-carboxamide]",5.6
15,Cn1cc(-c2cccc(NC(=O)c3cc4c(nc3O)OC(C)(C)C4)n2)cn1 [Compound B34],243
16,"Cn1cc(-c2cccc(NC(=O)c3cc4c(nc3OC(F)F)OC(C)(C)C4)n2)cn1 [Compound B20, 6-(Difluoromethoxy)-2,2-dimethyl-N-(6-(1-methyl-1H-pyrazol-4-yl)pyridin-2-yl)-2,3-dihydrofuro[2,3-b]pyridine-5-carboxamide]",27
17,"Cn1cc(-c2cccc(NC(=O)c3cc4c(nc3N3CCNC5(CC5)C3)OC(C)(C)C4)n2)cn1 [Compound B8, 2,2-Dimethyl-N-(6-(1-methyl-1H-pyrazol-4-yl)pyridin-2-yl)-6-(4,7-diazaspiro[2.5]octan-7-yl)-2,3-dihydrofuro[2,3-b]pyridine-5-carboxamide]",224
18,"CN1CCN(c2nc3nc(N4CCC5(CCO5)CC4)c(C(=O)Nc4cccc(-c5cnn(C)c5)n4)cc3o2)CC1 [Compound A58, N-(6-(1-Methyl-1H-pyrazol-4-yl)pyridin-2-yl)-2-(4-methylpiperazin-1-yl)-5-(1-oxa-7-azaspiro[3.5]nonan-7-yl)oxazolo[4,5-b]pyridine-6-carboxamide]",4.9
19,"Cl.Cn1cc(-c2cccc(NC(=O)c3cc4oc(N5CCOCC5)nc4nc3N3CCN(CCO)CC3)n2)cn1 [Compound A36, 5-(4-(2-Hydroxyethyl)piperazin-1-yl)-N-(6-(1-methyl-1H-pyrazol-4-yl)pyridin-2-yl)-2-morpholinooxazolo[4,5-b]pyridine-6-carboxamide Hydrochloride]",17
20,"Cc1cc(-c2nc(NC(=O)c3cc4oc(N5CCOCC5)nc4nc3N3CC[C@@H](O)C3)co2)ccn1 [Compound A49, (R)-5-(3-Hydroxypyrrolidin-1-yl)-N-(2-(2-methylpyridin-4-yl)oxazol-4-yl)-2-morpholinooxazolo[4,5-b]pyridine-6-carboxamide]",> 6000
21,"Cn1cc(-c2cccc(NC(=O)c3cc4c(nc3OC3CNC3)OC(C)(C)C4)n2)cn1 [Compound B30, 6-(Azetidin-3-yloxy)-2,2-dimethyl-N-(6-(1-methyl-1H-pyrazol-4-yl)pyridin-2-yl)-2,3-dihydrofuro[2,3-b]pyridine-5-carboxamide]",170
22,"CN1CCN(c2nc3nc(N4CCC(C)(O)CC4)c(C(=O)Nc4cccc(-c5cnn(C)c5)n4)cc3o2)CC1 [Compound A59, 5-(4-Hydroxy-4-methylpiperidin-1-yl)-N-(6-(1-methyl-1H-pyrazol-4-yl)pyridin-2-yl)-2-(4-methylpiperazin-1-yl)oxazolo[4,5-b]pyridine-6-carboxamide]",6.6
23,"Cn1cc(-c2cccc(NC(=O)c3cc4c(nc3N3CCC(C)(O)CC3)OC(C)(C)C4)n2)cn1 [Compound B7, 6-(4-Hydroxy-4-methylpiperidin-1-yl)-2,2-dimethyl-N-(6-(1-methyl-1H-pyrazol-4-yl)pyridin-2-yl)-2,3-dihydrofuro[2,3-b]pyridine-5-carboxamide]",11
24,"CN1CC(Oc2nc3c(cc2C(=O)Nc2cccc(-c4cnn(C)c4)n2)CC(C)(C)O3)C1 [Compound B31, 2,2-Dimethyl-N-(6-(1-methyl-1H-pyrazol-4-yl)pyridin-2-yl)-6-((1-methylazetidin-3-yl)oxy)-2,3-dihydrofuro[2,3-b]pyridine-5-carboxamide]",176
25,"COc1nc2c(cc1C(=O)Nc1cccc(-c3cnn(C)c3)n1)CC(C)(C)O2 [Compound B11, 6-Methoxy-2,2-dimethyl-N-(6-(1-methyl-1H-pyrazol-4-yl)pyridin-2-yl)-2,3-dihydrofuro[2,3-b]pyridine-5-carboxamide]",50
